How the values were obtained:
[1] = test system: mitochondrial membrane potential (Δψm) in live PF T. brucei; test: MitoTracker monitoring of mitochondrial membrane potential; type: cell-based, Trypanosoma brucei; details: 2 h, AA and OA 2 μM, DNP 1 mM
Source text: To determine which mitochondrial complex of oxidative phosphorylation was targeted by B-THP-T compounds, their effects on the mitochondrial membrane potential (Δψm) were monitored in live PF T. brucei (Fig 6A). MitoTracker Red CMXRos, like tetramethylrhodamine and safranine, accumulates in active mitochondria and the degree of accumulation is dependent on the Δψm, however, accumulation of MitoTracker Green FM is independent of the Δψm and the ratio of red/green uptake can therefore be used to determine the Δψm normalised to the number and size of mitochondria present. […] Similarly, compounds 1 and 3 elevated the mitochondrial membrane potential (by 2-3-fold), confirming that they, like OA, reduce oxidative phosphorylation by the inhibition of the FoF1-ATP synthase.
Fig 6 Effects of compounds on mitochondrial membrane potential. PF T. brucei were incubated with inhibitors and MitoTracker Red CMXRos, which is an indicator of the mitochondrial membrane potential (Δψm). (A) MitoTracker-loaded cells were imaged to qualitatively detect differences in the Δψm. […] (B) Fluorescence of MitoTracker-loaded cells were quantified using a microplate reader and normalised to MitoTracker green fluorescence.
2 x 10^6 PF T. brucei cells were incubated in 1 mL GF-SDM-79 growth media supplemented with/without inhibitors for 2 h. B-THP-Ts were used at 40 μM, AA and OA at 2 μM, DNP at 1 mM and SHAM at 100 μM. MitoTracker Red CMXRos and MitoTracker Green FM were added to 100 nM and 1 μM respectively and incubated for a further 10 min. Cells were washed in growth medium and the MitoTracker reagents chased into the mitochondrion for 10 min in fresh growth medium supplemented with inhibitors. Cells were washed again in growth medium to remove unincorporated MitoTracker reagents, pelleted, suspended in 100 μL 4% PFA in PBS, and fixed at RT in the dark for 10 min. Fixed cells were pelleted and suspended in 100 μl PBS. Cells were transferred to poly-lysine-coated slides and mounted with DAPI-containing SlowFade mounting medium (Invitrogen). Fluorescence images were collected with a DeltaVision microscope (as detailed above) to show MitoTracker localisation and comparative intensity.
1 mL of cells at 1 x 10^7 cells/mL were labelled as above. However, instead of fixing cells they were resuspended in 200 μL growth medium and transferred to 96-well plates. Fluorescences were recorded (excitation at 540/35 nm, emission at 590/10 nm for MitoTracker Red CMXRos, and excitation at 485/20 nm, emission at 528/20 nm for MitoTracker Green FM) using a BioTek FLX800 spectrofluorimeter and Gen5 Reader Control 2.0 software, in much the same way as others have recorded previously. Background fluorescence values were subtracted from each and MitoTracker Red fluorescences normalised against their MitoTracker Green FM counterparts. Membrane potentials were then calculated relative to the uninhibited controls.

[2] = test system: ATP production (oxidative phosphorylation) in digitonin-permeabilised PF T. brucei; test: ATP production assay in digitonin-permeabilised cells; type: cell-based, Trypanosoma brucei; details: 30 min; for Inhibition of ATP production from Gly-3P / Effect on ATP production from Gly-3P: glycerol-3-phosphate as substrate; for Inhibition of ATP production from Gly-3P / Effect on ATP production from succinate: compound 1, AA, OA 200 μM, DNP 1 mM; for Effect on ATP production from succinate: succinate 2.5 mM as substrate; for Effect on ATP production from succinate / Effect on ATP production from Gly-3P: malonate 5 mM, rotenone, SHAM 100 μM
Source text: We next sought to identify the point at which ATP production was blocked using digitonin-permeabilised cells. Digitonin permeabilises the plasma membrane of trypanosomatids, but crucially, leaves the glycosomes and mitochondria intact and fully functional, allowing them to be probed with compartment-specific ATP-yielding substrates. Digitonin-permeabilised PF T. brucei were probed with succinate, which is readily transported across the PF T. brucei mitochondrial membrane by the dicarboxylic acid carrier and can yield only oxidative phosphorylation-derived ATP through the FoF1-ATP synthase (complex V).
Fig 5 Inhibition of ATP production in digitonin-permeabilsed cells. (A-C) Digitonin-permeabilised PF T. brucei were probed with substrates in the presence of inhibitors and resulting ATP production quantified by bioluminescence assay. See experimental section for details. Inhibitors were used at saturating concentrations to ensure that relevant enzyme activities were ablated. Key: NS, no substrate; NI, no inhibitor; SHAM, salicylhydroxamic acid (TAO inhibitor at 100 μM); Rotenone (complex I inhibitor at 100 μM); Malonate (complex II inhibitor at 5 mM); AA, antimycin A (complex III inhibitor at 200 μM); OA, oligomycin A (complex V inhibitor at 200 μM); DNP, 2,4-dinitrophenol (protonophore at 1 mM); Comp.1, compound 1 at 200 μM. Background relative light units (RLU) were subtracted from measurements and % ATP production normalised to the no inhibitor control. Data were averaged from three independent experiments, each performed in quadruplicate. Error bars show standard deviations. T-tests were performed against no inhibitor controls (black asterisks) and compound 1 (grey open circles) and significance values presented: p < 0.00005 (*** / °°°), p < 0.0005 (** / °°), p < 0.005 (* / °). (A) Succinate was used as a substrate to generate ATP solely through oxidative phosphorylation (OxPhos). Oxidative phosphorylation inhibitors malonate, AA, OA and DNP virtually eliminated all ATP production. […] (B) α-ketoglutarate yields 40% ATP through substrate-level phosphorylation (SubPhos) and 60% through oxidative phosphorylation. Malonate, AA, OA and DNP inhibit oxidative phosphorylation, but not substrate-level phosphorylation. […] (C) Gly-3P acts as an alternative entry site to the electron transport chain yielding ATP through oxidative phosphorylation and the glycosome (GlyPhos). Malonate has no effect, as it acts at a different entry point. AA, OA and DNP inhibit oxidative phosphorylation, but not glycosomal phosphorylation.
ATP production assays were carried out in duplicate, and three independent assays were conducted. Cells were digitonin-permeabilised as previously described. Briefly, cells were washed in PBS and permeabilised for 5 min at a density of 1x10^8 cells/mL in SoTE buffer (20 mM Tris.HCl (pH 7.5), 2 mM EDTA pH 7.5, 600 mM sorbitol) supplemented with 0.015% (w/v) digitonin. Permeabilised cells were pelleted at 5000 g for 3 min at 4°C and suspended to 8.4x10^7 cells/mL in ATP assay buffer (20 mM Tris.HCl (pH 7.4), 15 mM KH2PO4, 0.6 M sorbitol, 10 mM MgSO4, 2.5 mg/mL fatty acid-free BSA.
ATP production assays were carried out in 75 μl volumes in 96-well plates with a final PF T. brucei cell density of 6.7 x 10^7 cells/mL as previously reported. […] B-THP-Ts, antimycin A (AA) and oligomycin A (OA) were used at 200 μM, Dinitrophenol (DNP) at 1 mM, malonate at 5 mM, rotenone at 100 μM and salicylhydroxamic acid (SHAM) at 100 μM. 59.25 μL digitonin-permeabilised cells (prepared above) were added to 0.75 μl inhibitor dissolved in DMSO (or 0.75 μL DMSO without inhibitor for no inhibitor control) and incubated for 10 min to allow inhibitors to take effect. Substrate was added to 2.5 mM and incubated for 10 min. Reactions were started with the addition of ADP to 60 μM and incubated at RT for 30 min. […]

HeLa = test: Toxicity (EC50) in HeLa cells; type: cell-based; details: Homo sapiens, footnote b, read-out: EC50 values Mammal HeLa
Source text: Fig 1 Labelling and detection of B-THP-T target(s). (A) Structures of chamuvarinin and simplified analogues thereof as probes used in this study and their respective toxicity in selected cell lines. Bi-functional compound 3 contains a diazirine (blue) to cross-link the compound to its target and an alkyne handle (red) to which an azide-containing reporter probe can be added. Mono-functional compound 2 contains the diazirine to cross-link to its target but lacks the alkyne handle and cannot be appended with an azide reporter probe. Lead B-THP-T, compound 1, lacks both diazirine and alkyne. The additional functional groups on compounds 2 and 3 are minor alterations, which have little effect on inhibitor potency. (B) Overview of the in vivo pulse-chase photo-affinity labelling procedure. B-THP-T were incubated with live PF T. brucei cells and trafficked to their targets. Following UV-irradiation, only compounds containing a diazirine (i.e. compounds 2 and 3) could cross-link with target proteins. The subsequent “click reaction” appended the conjugated B-THP-T with a reporter probe as long as an alkyne handle was present (i.e. on compound 3). Refer to the experimental section for details. (C) Detection of Cy5.5-tagged proteins following photo-affinity labelling. Proteins were separated by SDS-PAGE and conjugated Cy5.5 was detected at 700 nm. […]

T. brucei PF = test: Toxicity (EC50, cell viability) in procyclic form T. brucei; type: cell-based; details: Trypanosoma brucei, live cells, 72 h incubation, footnote a
Source text: (§1) Fig 1 Labelling and detection of B-THP-T target(s). (A) Structures of chamuvarinin and simplified analogues thereof as probes used in this study and their respective toxicity in selected cell lines. Bi-functional compound 3 contains a diazirine (blue) to cross-link the compound to its target and an alkyne handle (red) to which an azide-containing reporter probe can be added. Mono-functional compound 2 contains the diazirine to cross-link to its target but lacks the alkyne handle and cannot be appended with an azide reporter probe. Lead B-THP-T, compound 1, lacks both diazirine and alkyne. The additional functional groups on compounds 2 and 3 are minor alterations, which have little effect on inhibitor potency. (B) Overview of the in vivo pulse-chase photo-affinity labelling procedure. B-THP-T were incubated with live PF T. brucei cells and trafficked to their targets. Following UV-irradiation, only compounds containing a diazirine (i.e. compounds 2 and 3) could cross-link with target proteins. The subsequent “click reaction” appended the conjugated B-THP-T with a reporter probe as long as an alkyne handle was present (i.e. on compound 3). Refer to the experimental section for details. (C) Detection of Cy5.5-tagged proteins following photo-affinity labelling. Proteins were separated by SDS-PAGE and conjugated Cy5.5 was detected at 700 nm. Lanes 1–3 correspond to usage of compounds 1–3 respectively. Several proteins in lane 3 were conjugated with Cy5.5 via labelling with bi-functional compound 3. […]
The potency of lead B-THP-T, compound 1, was determined against oxidative phosphorylation in dose-response assays in digitonin-permeabilised PF T. brucei.
Supplementary file pntd.0005886.s001.tiff: S1 Fig Dose-response of B-THP-T compounds in PF T. brucei. EC50 values were determined for compounds 1–3 in PF T. brucei. […]

T. brucei BSF = test: Toxicity (EC50) in bloodstream form T. brucei; type: cell-based, Trypanosoma brucei; details: Trypanosoma brucei; bloodstream form; footnote b
Source text: as §1

## O=[N+]([O-])c1ccc(O)c([N+](=O)[O-])c1 [2,4-dinitrophenol]
[1]
  Effect on mitochondrial membrane potential (Δψm): decrease the mitochondrial membrane potential
[2]
  Inhibition of ATP production from Gly-3P: 67 ± 13%
  Effect on ATP production from succinate: almost abolished ATP production

## OCCCC[C@H]1CC2(C[C@@H](Cn3cc([C@@H]4CCC[C@H](CCCCOCc5ccccc5)O4)nn3)O1)N=N2 [Compound 2, 4-((5S,7S)-7-((4-((2S,6S)-6-(4-(benzyloxy)butyl)tetrahydro-2H-pyran-2-yl)-1H-1,2,3-triazol-1-yl)methyl)-6-oxa-1,2-diazaspiro[2.5]oct-1-en-5-yl)butan-1-ol]
HeLa
  EC50: 20.9 ± 3 µM
T. brucei PF
  EC50: 8.9 ± 0.2 µM
T. brucei BSF
  EC50: 11.8 ± 0.8 µM

## C=C(C)[C@H]1Cc2c(ccc3c2O[C@@H]2COc4cc(OC)c(OC)cc4[C@@H]2C3=O)O1 [rotenone]
[2]
  Effect on ATP production from Gly-3P: no effect
  Effect on ATP production from succinate: no significant effect

## O=C(NO)c1ccccc1O [salicylhydroxamic acid]
[2]
  Effect on ATP production from Gly-3P: no effect
  Effect on ATP production from succinate: no significant effect

## oligomycin A
[1]
  Effect on mitochondrial membrane potential (Δψm): elevates the Δψm
[2]
  Inhibition of ATP production from Gly-3P: 65 ± 21%
  Effect on ATP production from succinate: almost abolished ATP production

From paper PMC5608556, “Photo-affinity labelling and biochemical analyses identify the target of trypanocidal simplified natural product analogues” (PLoS Neglected Tropical Diseases, 2017)
